The values that follow are results of earlier work, collected in patent US7393522B2, “Physiologically balanced, ionized, acidic solution and methodology for use in wound healing” (NovaBay Pharmaceuticals, Inc., priority 2000, dated 2008).

For the data set the following is noted: pH 5.0 to pH 8.0.

Take `OCl` [HOCl, hypochlorous acid]: the “pH of maximum decomposition rate” value is 6.89.
